These results are taken from publication PMC11784839, “Monoaminergic neurotransmitters are bimodal effectors of tau aggregation” (Science Advances, 2025).

Like-named read-outs stand apart in the source and are kept apart here.

The target in one experiment is tau (Homo sapiens, UniProt P10636). The experiment can be described thus: Tau biosensor dose titrations (HEK293T tau biosensor cells seeded with AD brain homogenate).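 Note: AD brain homogenate preincubated 16 h with compound, then transfected into tau biosensor cells, seeding read as tau puncta counted by imaging, normalized to cell confluence.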 Format: cell-based.
Sequence of tau (P10636 623-695 limits assumed): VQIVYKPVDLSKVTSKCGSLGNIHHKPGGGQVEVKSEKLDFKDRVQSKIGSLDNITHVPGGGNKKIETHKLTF
The target of experiment [1] is T1, P301S 4R1N tau fused with YFP (Homo sapiens, UniProt P10636, P618S).
T1 sequence (P10636 1-412 isoform P10636-7 P272S): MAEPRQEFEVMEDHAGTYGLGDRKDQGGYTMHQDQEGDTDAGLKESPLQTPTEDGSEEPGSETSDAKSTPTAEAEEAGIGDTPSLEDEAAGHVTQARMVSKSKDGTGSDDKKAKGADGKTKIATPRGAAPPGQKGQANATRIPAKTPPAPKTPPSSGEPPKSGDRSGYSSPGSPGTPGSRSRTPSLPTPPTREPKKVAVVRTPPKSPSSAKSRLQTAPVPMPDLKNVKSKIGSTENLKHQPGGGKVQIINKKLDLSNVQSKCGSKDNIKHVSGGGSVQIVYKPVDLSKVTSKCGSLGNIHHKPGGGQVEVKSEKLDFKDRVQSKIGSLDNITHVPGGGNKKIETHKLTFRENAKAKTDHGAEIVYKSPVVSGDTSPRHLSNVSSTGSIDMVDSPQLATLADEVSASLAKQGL
A further experiment has as its system VMAT2. Particulars: cited from earlier work.
For experiment [2], the target named is tau fibrils purified from AD brain (Homo sapiens, UniProt P10636). The experiment can be described thus: Quantitative electron microscopy (qEM) of fibril disaggregation. Format: biochemical. As to conditions: 75 μM; for effect on tau fibril load (qEM): 24-hour treatment, vs no inhibitor control; for reduction of tau fibril counts: preincubated 24 hours, N = 96 images.
Sequence of tau fibrils purified from AD brain (P10636 623-695 limits assumed): as the sequence (P10636 623-695 limits assumed) above

Experiment [3] concerns the target T1, P301S 4R1N tau fused with YFP. The experiment in a line: cell-based.
Experiment [4] has as its system intracellular DA concentrations. Particulars: cited from earlier work.
The mark [5] stands for this setting: AD brain homogenate diluted to […] ptau, read-out: IC50 low tau load.

Turning to `NCCc1ccc(O)c(O)c1` [DA, dopamine, reference compound], the “effect on seeding at 10 μM” value at tau (10 μM final concentration on cells, AD brain homogenate seed) was “inhibited”. The half-inhibitory concentration (IC50) was determined as 3.6 µM on tau (setting [5]); 9.8 µM on tau (AD brain homogenate with ptau […], read-out: IC50 high tau load); 16.6 µM in experiment [3]. The “dose-dependent effect of NT on tau seeding” value on tau (AD brain homogenate pretreated with indicated amounts of NT (Fig. 3A)) was “potently and dose-dependently inhibited tau seeding”. In experiment [1] (around 1 μM, high tau load), the “effect of lower doses on seeding in dopaminergic neurons” value is listed as “catalytic effect on seeding”. For the same molecule, the “effect on seeding in dopaminergic neurons at 50 μM” value in experiment [1] (final concentration 50 μM on cells) is on record as “inhibited seeding”. Also, the “affinity for VMAT2 relative to 5-HT” value with VMAT2 is recorded as “comparable or slightly lower affinity for VMAT2 than 5-HT”. Moreover, in experiment [2], the “effect on tau fibril load (qEM)” value is listed as “significantly reduce AD tau fibrils”. In addition, the “reduction of tau fibril counts” value in experiment [2] is listed as “about 50%”.
In the case of `N[C@@H](Cc1ccc(O)c(O)c1)C(=O)O` [L-dopa], the IC50 at tau (setting [5]) was 1.9 µM. Further, in experiment [2], the “effect on tau fibril load (qEM)” value is reported as “significantly reduce AD tau fibrils” and the “reduction of tau fibril counts” value was around 75%. In addition, in experiment [4], the “increase of intracellular DA concentrations” value is listed as around 10 fold and the “intracellular DA concentration in neurons treated with levodopa” value is “up to 17 μM”.

A word on the IC50: it is the concentration that inhibits the measured activity by half.
